From patent publication US12251411B2, “Methods of treating endometrial cancer using hemp extract” (Ecofibre USA Inc., priority 2021, dated 2025)
Values after ≈ are worked out from the molar mass of the structure shown. Like-named read-outs stand apart in the source and are kept apart here.

Columns and labels:
[1] = tested on: patient derived organoids; type: cell-based, human; conditions: % of cells that died compared to control; organoids of the chemoresistant patient
Experimental: In addition to the agents listed above, several other drugs were tested to see if they influenced organoid growth. In this case, results are shown as the % of cells that died compared to control. […] This is consistent with the patient's actual lack of response to treatment with paclitaxel.

[2] = tested on: patient derived endometrial cancer organoids; test: Patient-derived endometrial cancer organoid viability: chemotherapeutic agent alone or with IC50 dose of cannabis extract
Experimental: To perform these experiments, we used cells from patient 4 (see, e.g., FIGS. 7A and 7C) to test grade 2 endometrial cancer and cells from patient 12 (see, e.g., FIGS. 7B-7D) to test grade 3 endometrial cancer. […] Methods concerning producing organoids from human tissue samples are provided in the Methods section at the end of this document.
(§1) Individual patient cell organoids were cultured separately in different plates.
(§2) The same IC50 dose was given with each incremental dose of chemotherapeutic agent.

[3] = tested on: patient derived endometrial cancer tumors; test: Patient-derived xenograft mice: tumor volume with paclitaxel alone or combined with cannabis extract; type: in vivo
Experimental: (§3) Human patient cells from endometrial cancer were injected subcutaneously into female NOD/SCID gamma mice after resuspending in 100 μL solution. […] Tumor size was measured before treatment, followed by twice a week measurements. All treatment group mice were kept alive for up to 10 weeks after drug injection or until the tumor volume grows bigger than 2500 mm^3.

[4] = tested on: endometrial cancer patient derived organoids; test: Viability of patient-derived endometrial cancer organoids treated with cannabis extracts (CellTiter-Glo); conditions: for IC50: Homo sapiens; for viable organoids in words: 7 and 10 μg/mL
Experimental: For this set of experiments, we obtained tissue samples from a new set of 12 patients, each having grade 1, grade 2, or grade 3 endometrial cancer. Cells from these patients were prepared as described in the Methods section below.
as §1, §2

[5] = tested on: patient derived endometrial cancer tumors; test: Patient-derived xenograft mice: change in endometrial cancer tumor volume with cannabis extracts alone; type: in vivo; conditions: for decrease in average tumor volume vs day 0: day 10
Experimental: Generally, EC stem cells from the same patients that participated in the organoid studies of FIG. 7, were injected into the mice, and allowed to grow. After tumors reached a certain size, the mice were either injected (3 times/week) with the extract-delivery vehicle or with the particular cannabis extract. After a certain amount of time elapsed, tumor size was measured. The details regarding patient-derived xenograft methodology and experimental protocol are provided in the Methods section.
The % change is an average number taken from tumor volumes of three mice compared to the starting average tumor volume on day 0 of treatment. Change can either be positive (tumor increases in size) or negative (tumor decreases in size).
as §3

[6] = cited from earlier work
[7] = tested on: organoids from the patient's endometrial cancer; test: Response of organoids crafted from the patient's endometrial cancer to alternative chemotherapies and BSHE; type: cell-based, human; conditions: chemoresistant stage IV endometrial cancer patient
Description: See, Tables 3 and 4, below.

[8] = tested on: organoids derived from ovarian cancer tissue; test: Impact of pH on viability of ovarian cancer organoids treated with cannabis extracts; type: cell-based; conditions: 10 μg/mL; pH 8
Description: In this set of experiments, organoids were derived from ovarian cancer tissue.

[9] = molecular target: P-glycoprotein (Homo sapiens, UniProt P08183); conditions: in vitro; cited from earlier work
P-glycoprotein, sequence (P08183 whole entry): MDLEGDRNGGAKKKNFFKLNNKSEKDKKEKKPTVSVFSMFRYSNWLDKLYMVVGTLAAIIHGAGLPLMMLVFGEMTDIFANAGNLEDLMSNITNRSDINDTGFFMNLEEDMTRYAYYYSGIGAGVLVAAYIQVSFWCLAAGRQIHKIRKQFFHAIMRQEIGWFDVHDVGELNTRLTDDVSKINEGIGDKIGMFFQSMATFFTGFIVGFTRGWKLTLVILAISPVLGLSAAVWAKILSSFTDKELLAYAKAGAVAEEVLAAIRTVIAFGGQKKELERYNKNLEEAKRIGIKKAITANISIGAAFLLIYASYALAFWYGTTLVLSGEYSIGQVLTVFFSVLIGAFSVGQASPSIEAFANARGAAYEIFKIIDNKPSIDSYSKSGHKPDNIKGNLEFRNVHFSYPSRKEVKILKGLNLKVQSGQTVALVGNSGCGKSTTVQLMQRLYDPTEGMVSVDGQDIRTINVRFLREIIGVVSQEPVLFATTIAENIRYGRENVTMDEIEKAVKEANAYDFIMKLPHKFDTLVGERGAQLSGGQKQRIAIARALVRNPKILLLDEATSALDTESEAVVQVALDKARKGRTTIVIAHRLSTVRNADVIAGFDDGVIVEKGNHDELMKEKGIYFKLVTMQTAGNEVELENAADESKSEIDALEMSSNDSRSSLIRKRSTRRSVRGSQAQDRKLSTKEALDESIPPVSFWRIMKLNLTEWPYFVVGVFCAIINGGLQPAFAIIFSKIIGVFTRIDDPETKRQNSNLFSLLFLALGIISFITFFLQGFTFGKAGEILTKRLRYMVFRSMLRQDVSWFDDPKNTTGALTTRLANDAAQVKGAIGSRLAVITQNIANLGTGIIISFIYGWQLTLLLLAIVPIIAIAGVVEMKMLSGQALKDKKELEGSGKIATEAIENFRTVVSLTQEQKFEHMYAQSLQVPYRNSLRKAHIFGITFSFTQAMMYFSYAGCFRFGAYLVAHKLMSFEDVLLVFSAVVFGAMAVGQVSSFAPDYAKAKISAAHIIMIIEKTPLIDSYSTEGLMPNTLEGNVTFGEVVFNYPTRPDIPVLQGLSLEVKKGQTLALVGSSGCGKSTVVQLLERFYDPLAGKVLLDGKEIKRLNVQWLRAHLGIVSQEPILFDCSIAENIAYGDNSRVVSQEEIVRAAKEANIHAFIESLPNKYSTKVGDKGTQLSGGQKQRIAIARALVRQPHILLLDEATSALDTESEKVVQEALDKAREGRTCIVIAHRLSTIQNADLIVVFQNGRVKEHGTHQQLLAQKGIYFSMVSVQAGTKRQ

[10] = molecular target: CYP2C19 (Homo sapiens, UniProt P33261); conditions: in vitro; cited from earlier work
CYP2C19, sequence (P33261 whole entry, species assumed): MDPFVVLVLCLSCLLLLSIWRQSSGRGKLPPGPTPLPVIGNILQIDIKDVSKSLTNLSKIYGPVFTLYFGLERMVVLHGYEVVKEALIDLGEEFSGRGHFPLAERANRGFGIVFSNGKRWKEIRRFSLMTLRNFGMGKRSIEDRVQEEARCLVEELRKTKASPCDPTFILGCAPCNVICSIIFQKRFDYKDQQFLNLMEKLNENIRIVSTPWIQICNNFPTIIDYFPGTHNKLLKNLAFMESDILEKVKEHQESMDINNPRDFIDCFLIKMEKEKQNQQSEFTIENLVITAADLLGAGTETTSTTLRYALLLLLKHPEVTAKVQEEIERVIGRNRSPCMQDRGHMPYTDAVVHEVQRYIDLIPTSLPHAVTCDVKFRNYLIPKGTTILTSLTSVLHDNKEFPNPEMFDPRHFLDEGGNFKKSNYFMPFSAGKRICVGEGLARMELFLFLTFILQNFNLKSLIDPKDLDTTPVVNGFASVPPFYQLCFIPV

[11] = cited from earlier work; remark: listed apart in the source
[12] = read-out: IC50s for Patient 4 Organoids (Grade 2 Endometrial Cancer)
[13] = read-out: IC50s for Patient 12 Organoids (Grade 3 Endometrial Cancer)
[14] = day 14, 6 doses total of about 30 mg/kg

In the case of `CC(=O)O[C@H]1C(=O)[C@@]2(C)[C@H]([C@H](OC(=O)c3ccccc3)[C@]3(O)C[C@H](OC(=O)[C@H](O)[C@@H](NC(=O)c4ccccc4)c4ccccc4)C(C)=C1C3(C)C)[C@]1(OC(C)=O)CO[C@@H]1C[C@@H]2O` [Paclitaxel], the “% Cell Death” value [1] is reported as 39%, the organoid viability ([2]; human, 9 days, 4 nM/mL) is reported as “about 30%” and the “improvement of 20 nM/mL over the lower dose (4 nM/mL)” value ([2]; patient 4, grade 2, paclitaxel alone) is reported as “about 12%”. The “improvement in reducing % viable organoids between 4 nM/mL and 20 nM/mL” value ([2]; patient 12, grade 3, paclitaxel alone) was ~5%, the “decrease in tumor volume” value ([3]; paclitaxel alone 10 mg/kg, day 10) was ~37% and the “further change of tumor volume” value ([3]; paclitaxel alone 10 mg/kg, day 10 to day 21) was “does not really change”.
In the case of `C=C(C)[C@@H]1CCC(C)=C[C@H]1c1c(O)cc(CCCCC)c(C(=O)O)c1O` [CBDA, cannabidiolic acid], the response of organoids ([4]; 10 and 15 μg/mL) is reported as “a strong response was not seen in all patient derived organoids”, the IC50 [4, 12] is reported as 12.1 µg/mL (≈ 33.6 µM) and the IC50 [4, 13] is reported as 15.8 µg/mL (≈ 44.1 µM). The “formation of viable organoids” value ([4]; all patients, dosing up to 50 μg/mL) was ~0%, the “effect on organoid viability” value ([4]; lower doses) was “did not affect organoid viability” and the “increase in average tumor volume vs day 0” value ([5]; day 7, 3 doses of about 30 mg/kg, injected 3 times/week) was “greater than 30%”. The “overall decrease in average tumor volume in three days” value ([5]; day 7 to day 10, about 30 mg/kg, 3 times/week) was “greater than 60%”, the “decrease in average tumor volume vs day 0” value ([5]; about 30 mg/kg, 3 times/week) was “greater than 30%” and the “decrease in average tumor volume compared to starting size” value (“decrease … to starting size” below) [5, 14] was 70%. For the same molecule, the “decrease … to starting size” value ([5]; day 21, 9 doses total of about 30 mg/kg) was ~100%, the “increase in average tumor volume” value ([3]; a few days before day 14, extract 30 mg/kg + paclitaxel 10 mg/kg) was ~40% and the “decrease in average tumor volume compared to paclitaxel alone” value ([3]; day 14, extract 30 mg/kg + paclitaxel 10 mg/kg) was ~20%. For the same molecule, the bioavailability ([6]; consumed with other cannabinoids in FSHE vs equivalent dose of isolated CBDA) was “increased bioavailability”.
In the case of gemcitabine/capecitabine [GemCap], the “response of the patient's organoids” value [7] is reported as “partial response”.
For `C=C(C)[C@@H]1CCC(C)=C[C@H]1c1c(O)cc(CCCCC)cc1O` [CBD isolate, cannabidiol], the IC50 [4, 12] was 3.09 µg/mL (≈ 9.83 µM), the IC50 [4, 13] was 2.92 µg/mL (≈ 9.29 µM) and the IC50 ([4]; read-out: dose at which 50% viability of organoids was obtained) was ~3 µg/mL (≈ 9.54 µM). The “viable organoids / response in words” value ([4]; grade 1, 10 μg/mL) was “does not show complete response”, the response of organoids ([4]; grade 1 lower responder patient, 15 and 20 μg/mL) was “complete response” and the “viable organoids in words” value ([4]; grade 2) was “virtually zero”. The “viable organoids in words” value ([4]; grade 3) was “virtually zero”, the “dose at which 50% viability of organoids was obtained” value ([4]; grade 3 representative sample (FIG. 7)) was “about 3 μg/mL” and the “decrease in average tumor volume vs day 0” value ([5]; about 30 mg/kg, 3 times/week) was “not as responsive”. The “decrease … to starting size” value [5, 14] was “less than 50%”, the “decrease in viable organoids compared to carboplatin alone” value ([2]; patient 4, IC50 dose of extract + 100 μM/mL carboplatin) was “about 32%” and the “decrease in the % of viable organoids when 4 nM/mL paclitaxel is combined with extract” value ([2]; patient 12, grade 3, IC50 dose of extract + 4 nM/mL paclitaxel) was “up to 19%”. The “efficacy compared to native pH” value [8] was “virtually no change”, the P-glycoprotein-mediated drug transport [9] was “significantly inhibits” and the “inhibition of CYP2C19 enzymes” value [10] was “potent inhibitor”. The “dose with clinically significant drug interactions” value ([11]; current literature) was 20 mg/kg/day, the “doses established as well tolerated” value ([11]; humans, chronic use) was “up to 1,500 mg/day” and the “dose with meaningful interactions with Warfarin” value ([11]; published case study) was 10 mg/kg. For the same molecule, the “effect on peak plasma drug concentrations” value ([6]; coadministration of ketoconazole (CYP3A4 inhibitor)) was “nearly doubled”, the “effect on peak plasma concentrations” value ([6]; coadministration of rifampicin (CYP3A4 inducer)) was “significantly reduced” and the “increase of Cmax” value ([6]; coadministration with high fat food) was “up to 5 fold”. The Tmax ([6]; delivery via nasal mucosa) was “approximately 10 minutes”, the “maximum plasma concentration (time)” value ([6]; oral) was 2.5 to 5 h and the “maximum plasma concentration (time), delayed in some individuals” value ([6]; oral) was “up to 6 hours”. For the same molecule, the serum bioavailability ([6]; orally delivered, consumed with CBDA) was “increase substantially”, the “maximum plasma concentration (time)” value ([6]; oromucosal or sublingual delivery) was 1.6 h and the bioavailability ([6]; rectal suppository delivery) was 51-60%.
